Experiments:
Type in all cases: in vivo
[1] = test system: redroot pigweed (Amaranthus retroflexus); experiment: Test C; parameters: key: 0 was no effect; 100 was complete control; conditions: PREEMERGENCE
[2] = test system: fall panicum (Panicum dichotomiflorum); experiment: Test C; parameters: key: 0 was no effect; 100 was complete control; conditions: PREEMERGENCE
[3] = test system: large crabgrass (Digitaria sanguinalis); experiment: Test C; parameters: key: 0 was no effect; 100 was complete control; conditions: PREEMERGENCE
[4] = test system: ivyleaf morningglory (Ipomoea hederacea); experiment: Test C; parameters: key: 0 was no effect; 100 was complete control; conditions: PREEMERGENCE
[5] = test system: barnyardgrass (Echinochloa crus-galli); experiment: Test C; parameters: key: 0 was no effect; 100 was complete control; conditions: PREEMERGENCE
[6] = test system: wild poinsettia (Euphorbia heterophylla); experiment: Test C; parameters: key: 0 was no effect; 100 was complete control; conditions: PREEMERGENCE
[7] = test system: eastern black nightshade (Solanum ptycanthum); experiment: Test C; conditions: PREEMERGENCE
[8] = test system: sandbur (Cenchrus echinatus); experiment: Test E pre-/postemergence/post directed
Procedure, shortened: (§1)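 Three application modes in greenhouse pots: preemergence soil spray, postemergence foliar spray at two to four leaves, and post-directed spray to soil and plant base. Ratings of 0–100 injury, assigned visually against untreated controls 13 to 21 days later.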

[9] = test system: alexandergrass (Brachiaria plantaginea); experiment: Test E pre-/postemergence/post directed
Procedure, shortened: as §1

[10] = test system: common groundsel (Senecio vulgaris); experiment: Test E pre-/postemergence/post directed; conditions: POSTEMERGENCE
Procedure, shortened: as §1

[11] = test system: itchgrass (Rottboellia exaltata); experiment: Test E pre-/postemergence/post directed
Procedure, shortened: as §1

[12] = test system: surinam grass (Brachiaria decumbens); experiment: Test E pre-/postemergence/post directed
Procedure, shortened: as §1

[13] = test system: johnson grass (Sorghum halepense); experiment: Test E pre-/postemergence/post directed
Procedure, shortened: as §1

[14] = test system: common ragweed (Ambrosia elatior); experiment: Test E pre-/postemergence/post directed; conditions: POSTEMERGENCE
Procedure, shortened: as §1

[15] = test system: bermudagrass (Cynodon dactylon); experiment: Test E pre-/postemergence/post directed
Procedure, shortened: as §1

[16] = test system: pitted morningglory (Ipomoea lacunosa); experiment: Test E pre-/postemergence/post directed; conditions: POSTEMERGENCE
Procedure, shortened: as §1

[17] = test system: Spanishneedles (Bidens bipinnata); experiment: Test E pre-/postemergence/post directed
Procedure, shortened: as §1

[18] = test system: large crabgrass (Digitaria sanguinalis); experiment: Test E pre-/postemergence/post directed
Procedure, shortened: as §1

[19] = test system: purple nutsedge (Cyperus rotundus); experiment: Test E pre-/postemergence/post directed; parameters: key: 0 is no injury; 100 is complete control
Procedure, shortened: as §1

[20] = test system: arrowleaf sida (Sida rhombifolia); experiment: Test C; parameters: key: 0 was no effect; 100 was complete control; conditions: PREEMERGENCE
[21] = test system: lambsquarters (Chenopodium album); experiment: Test C; parameters: key: 0 was no effect; 100 was complete control; conditions: PREEMERGENCE

## Cc1cnc(-n2ccc(C(F)(F)F)n2)nc1Cc1cccc(C(F)(F)F)c1 [Example 2, 5-methyl-4-[[3-(trifluoromethyl)phenyl]methyl]-2-[3-(trifluoromethyl)-1H-pyrazol-1-yl]pyrimidine]
[1]; Rate 35 g/ha
  Plant response rating, Redroot pigweed: 5
[1]; Rate 70 g/ha
  Plant response rating, Redroot pigweed: 5
[1]; Rate 140 g/ha
  Plant response rating, Redroot pigweed: 100
[2]; Rate 35 g/ha
  Plant response rating, Fall panicum: 0
[2]; Rate 70 g/ha
  Plant response rating, Fall panicum: 5
[2]; Rate 140 g/ha
  Plant response rating, Fall panicum: 100
[3]; Rate 35 g/ha
  Plant response rating, Large crabgrass: 0
[3]; Rate 70 g/ha
  Plant response rating, Large crabgrass: 5
[3]; Rate 140 g/ha
  Plant response rating, Large crabgrass: 100
[4]; Rate 35 g/ha
  Plant response rating, I. morningglory: 0
[4]; Rate 70 g/ha
  Plant response rating, I. morningglory: 5
[4]; Rate 140 g/ha
  Plant response rating, I. morningglory: 5
[5]; Rate 35 g/ha
  Plant response rating, Barnyardgrass: 0
[5]; Rate 70 g/ha
  Plant response rating, Barnyardgrass: 5
[5]; Rate 140 g/ha
  Plant response rating, Barnyardgrass: 30
[6]; Rate 35 g/ha
  Plant response rating, Wild poinsettia: 0
[6]; Rate 70 g/ha
  Plant response rating, Wild poinsettia: 5
[6]; Rate 140 g/ha
  Plant response rating, Wild poinsettia: 45
[7]; Rate 35 g/ha
  Plant response rating, E. blacknightsh: 5
[7]; Rate 70 g/ha
  Plant response rating, E. blacknightsh: 5
[7]; Rate 140 g/ha
  Plant response rating, E. blacknightsh: 90
[8]; POSTEMERGENCE, Rate 64 g/ha
  Plant response rating, Sandbur: 10
[8]; POSTEMERGENCE, Rate 125 g/ha
  Plant response rating, Sandbur: 10
[8]; POSTEMERGENCE, Rate 250 g/ha
  Plant response rating, Sandbur: 50
[8]; POSTEMERGENCE, Rate 500 g/ha
  Plant response rating, Sandbur: 80
[8]; PREEMERGENCE, Rate 32 g/ha
  Plant response rating, Sandbur: 20
[8]; PREEMERGENCE, Rate 64 g/ha
  Plant response rating, Sandbur: 65
[8]; PREEMERGENCE, Rate 125 g/ha
  Plant response rating, Sandbur: 90
[9]; POSTEMERGENCE, Rate 32 g/ha
  Plant response rating, Alexandergrass: 20
[9]; POSTEMERGENCE, Rate 64 g/ha
  Plant response rating, Alexandergrass: 30
[9]; POSTEMERGENCE, Rate 125 g/ha
  Plant response rating, Alexandergrass: 30
[9]; POSTEMERGENCE, Rate 250 g/ha
  Plant response rating, Alexandergrass: 80
[9]; POSTEMERGENCE, Rate 500 g/ha
  Plant response rating, Alexandergrass: 95
[9]; PREEMERGENCE, Rate 32 g/ha
  Plant response rating, Alexandergrass: 50
[9]; PREEMERGENCE, Rate 64 g/ha
  Plant response rating, Alexandergrass: 90
[10]; Rate 64 g/ha
  Plant response rating, Com. groundsel: 20
[10]; Rate 125 g/ha
  Plant response rating, Com. groundsel: 20
[10]; Rate 250 g/ha
  Plant response rating, Com. groundsel: 40
[10]; Rate 500 g/ha
  Plant response rating, Com. groundsel: 75
[11]; POSTEMERGENCE, Rate 32 g/ha
  Plant response rating, Itchgrass: 40
[11]; POSTEMERGENCE, Rate 64 g/ha
  Plant response rating, Itchgrass: 40
[11]; POSTEMERGENCE, Rate 125 g/ha
  Plant response rating, Itchgrass: 75
[11]; POSTEMERGENCE, Rate 250 g/ha
  Plant response rating, Itchgrass: 90
[11]; POSTEMERGENCE, Rate 500 g/ha
  Plant response rating, Itchgrass: 95
[11]; PREEMERGENCE, Rate 32 g/ha
  Plant response rating, Itchgrass: 70
[11]; PREEMERGENCE, Rate 64 g/ha
  Plant response rating, Itchgrass: 75
[11]; PREEMERGENCE, Rate 125 g/ha
  Plant response rating, Itchgrass: 75
[11]; PREEMERGENCE, Rate 250 g/ha
  Plant response rating, Itchgrass: 95
[12]; POSTEMERGENCE, Rate 32 g/ha
  Plant response rating, Surinam grass: 35
[12]; POSTEMERGENCE, Rate 64 g/ha
  Plant response rating, Surinam grass: 50
[12]; POSTEMERGENCE, Rate 125 g/ha
  Plant response rating, Surinam grass: 50
[12]; POSTEMERGENCE, Rate 250 g/ha
  Plant response rating, Surinam grass: 70
[12]; POSTEMERGENCE, Rate 500 g/ha
  Plant response rating, Surinam grass: 80
[12]; PREEMERGENCE, Rate 32 g/ha
  Plant response rating, Surinam grass: 50
[12]; PREEMERGENCE, Rate 64 g/ha
  Plant response rating, Surinam grass: 90
[13]; POSTEMERGENCE, Rate 32 g/ha
  Plant response rating, Johnsongrass: 10
[13]; POSTEMERGENCE, Rate 64 g/ha
  Plant response rating, Johnsongrass: 60
[13]; POSTEMERGENCE, Rate 125 g/ha
  Plant response rating, Johnsongrass: 60
[13]; POSTEMERGENCE, Rate 250 g/ha
  Plant response rating, Johnsongrass: 80
[13]; POSTEMERGENCE, Rate 500 g/ha
  Plant response rating, Johnsongrass: 95
[13]; PREEMERGENCE, Rate 32 g/ha
  Plant response rating, Johnsongrass: 65
[13]; PREEMERGENCE, Rate 64 g/ha
  Plant response rating, Johnsongrass: 98
[13]; PREEMERGENCE, Rate 125 g/ha
  Plant response rating, Johnsongrass: 85
[14]; Rate 32 g/ha
  Plant response rating, Com. ragweed: 50
[14]; Rate 125 g/ha
  Plant response rating, Com. ragweed: 75
[14]; Rate 250 g/ha
  Plant response rating, Com. ragweed: 75
[14]; Rate 500 g/ha
  Plant response rating, Com. ragweed: 75
[15]; POSTEMERGENCE, Rate 32 g/ha
  Plant response rating, Bermudagrass: 10
[15]; POSTEMERGENCE, Rate 64 g/ha
  Plant response rating, Bermudagrass: 20
[15]; POSTEMERGENCE, Rate 125 g/ha
  Plant response rating, Bermudagrass: 35
[15]; POSTEMERGENCE, Rate 250 g/ha
  Plant response rating, Bermudagrass: 50
[15]; POSTEMERGENCE, Rate 500 g/ha
  Plant response rating, Bermudagrass: 75
[15]; PREEMERGENCE, Rate 32 g/ha
  Plant response rating, Bermudagrass: 98
[16]; Rate 32 g/ha
  Plant response rating, P. morninglory: 80
[16]; Rate 64 g/ha
  Plant response rating, P. morninglory: 80
[16]; Rate 125 g/ha
  Plant response rating, P. morninglory: 80
[16]; Rate 250 g/ha
  Plant response rating, P. morninglory: 90
[16]; Rate 500 g/ha
  Plant response rating, P. morninglory: 90
[17]; POSTEMERGENCE, Rate 32 g/ha
  Plant response rating, Spanishneedles: 60
[17]; POSTEMERGENCE, Rate 64 g/ha
  Plant response rating, Spanishneedles: 60
[17]; POSTEMERGENCE, Rate 125 g/ha
  Plant response rating, Spanishneedles: 40
[17]; POSTEMERGENCE, Rate 500 g/ha
  Plant response rating, Spanishneedles: 70
[17]; PREEMERGENCE, Rate 32 g/ha
  Plant response rating, Spanishneedles: 80
[18]; POSTEMERGENCE, Rate 32 g/ha
  Plant response rating, Large crabgrass: 35
[18]; POSTEMERGENCE, Rate 64 g/ha
  Plant response rating, Large crabgrass: 35
[18]; POSTEMERGENCE, Rate 125 g/ha
  Plant response rating, Large crabgrass: 75
[18]; POSTEMERGENCE, Rate 250 g/ha
  Plant response rating, Large crabgrass: 80
[18]; POSTEMERGENCE, Rate 500 g/ha
  Plant response rating, Large crabgrass: 90
[18]; PREEMERGENCE, Rate 32 g/ha
  Plant response rating, Large crabgrass: 98
[19]; POSTEMERGENCE, Rate 32 g/ha
  Plant response rating, Purple nutsedge: 0
[19]; POSTEMERGENCE, Rate 64 g/ha
  Plant response rating, Purple nutsedge: 0
[19]; POSTEMERGENCE, Rate 125 g/ha
  Plant response rating, Purple nutsedge: 0
[19]; POSTEMERGENCE, Rate 250 g/ha
  Plant response rating, Purple nutsedge: 0
[19]; POSTEMERGENCE, Rate 500 g/ha
  Plant response rating, Purple nutsedge: 0
[19]; PREEMERGENCE, Rate 32 g/ha
  Plant response rating, Purple nutsedge: 0
[19]; PREEMERGENCE, Rate 64 g/ha
  Plant response rating, Purple nutsedge: 0
[19]; PREEMERGENCE, Rate 125 g/ha
  Plant response rating, Purple nutsedge: 0
[19]; PREEMERGENCE, Rate 250 g/ha
  Plant response rating, Purple nutsedge: 0
[19]; PREEMERGENCE, Rate 500 g/ha
  Plant response rating, Purple nutsedge: 0
[20]; Rate 35 g/ha
  Plant response rating, Arrowleaf sida: 10
[20]; Rate 70 g/ha
  Plant response rating, Arrowleaf sida: 20
[20]; Rate 140 g/ha
  Plant response rating, Arrowleaf sida: 100
[21]; Rate 35 g/ha
  Plant response rating, Lambsquarters: 0
[21]; Rate 140 g/ha
  Plant response rating, Lambsquarters: 100

Reference: patent US6525001B1, “Substituted pyrimidine and pyridine herbicides” (Mid-American Commercialization Corporation, priority 1997, dated 2003)
